Measured values taken from PubChem BioAssay (NCI).
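Cultured in 96-well plates, cells were exposed to test compound for 48 hours across five concentrations. At the GI50, growth is halved. TGI is the concentration that stops growth completely.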 Where a SMILES comes first, the peptide text is derived from it. [ ]: non-standard residue; d: D form. ξ: configuration not given here. ξLac(3-iPr) = CC(C)CC(O)C(=O)O; NMeV = CN[CH](C(=O)O)C(C)C; NMeA = CN[CH](C)C(=O)O; βAla = NCCC(=O)O

Key:
Experiment in all cases: growth of human tumour cells (NCI), 48 h
[1] = system: A498 renal
[2] = system: ACHN renal
[3] = system: DU-145 prostate
[4] = system: EKVX NSCLC
[5] = system: SF-295 CNS
[6] = system: SNB-75 CNS
[7] = system: UACC-62 melanoma
[8] = system: BT-549 breast
[9] = system: DLD-1 colon
[10] = system: DMS 114 small cell lung
[11] = system: DMS 273 small cell lung
[12] = system: HOP-18 NSCLC
[13] = system: KM20L2 colon
[14] = system: LXFL 529 NSCLC
[15] = system: XF 498 CNS

## O=C1/C(=C/c2ccc(Oc3ccccc3)cc2)N=C(c2ccccc2)N1c1ccc(S(=O)(=O)Nc2nccs2)cc1
[1]
  TGI: 82 µM
[2]
  TGI: > 100 µM
[3]
  TGI: > 100 µM
[4]
  TGI: > 100 µM
[5]
  TGI: 85.5 µM
[6]
  TGI: 58.1 µM
[7]
  TGI: > 100 µM

## CCN(CC)c1ccc2nc3ccc(N=Nc4c(O)ccc5ccccc45)cc3[n+](-c3ccccc3)c2c1
[2]
  TGI: > 100 µM
[8]
  TGI: > 100 µM
[3]
  TGI: > 100 µM
[4]
  TGI: > 100 µM
[5]
  TGI: > 100 µM
[6]
  TGI: > 100 µM
[7]
  TGI: > 100 µM

## Cc1ccc(C2COc3cc(O)c(O)cc3C2)cc1 (stereo unspecified)
[1]
  TGI: 130 µM
[9]
  TGI: 105 µM
[10]
  TGI: 37 µM
[11]
  TGI: 78.1 µM
[4]
  TGI: 59.8 µM
[12]
  TGI: 98.2 µM
[13]
  TGI: 164 µM
[5]
  TGI: 134 µM
[6]
  TGI: 126 µM
[7]
  TGI: 77.2 µM

## N#CC(C#N)N=Nc1ccc(-c2nc3ccccc3o2)cc1
[1]
  TGI: 31.2 µM
[2]
  TGI: 41.6 µM
[8]
  TGI: 31.8 µM
[3]
  TGI: 31.5 µM
[4]
  TGI: 29.9 µM
[6]
  TGI: 66.5 µM
[7]
  TGI: 26.1 µM

## C[C@]12CC[C@@H]3c4ccc(O)cc4CC[C@H]3[C@@H]1CC[C@@H]2OC(=O)CCc1ccccc1
[1]
  TGI: 32.6 µM
[2]
  TGI: 35.5 µM
[8]
  TGI: 34.2 µM
[3]
  TGI: 43 µM
[4]
  TGI: 25.4 µM
[5]
  TGI: 42 µM
[6]
  TGI: 33.8 µM
[7]
  TGI: 28.8 µM

## O=C1C=CC(=O)c2c(O)c(Br)c(Br)c(O)c21
[1]
  TGI: 36.9 µM
[2]
  TGI: 5.99 µM
[8]
  TGI: 27.1 µM
[3]
  TGI: 25.9 µM
[4]
  TGI: 58.7 µM
[5]
  TGI: 36.9 µM
[6]
  TGI: 38.4 µM
[7]
  TGI: 26.1 µM

## O=C(O)CCC(N=NNc1ccc(-c2nc3ccccc3[nH]2)cc1)C(=O)O (stereo unspecified)
[1]
  TGI: > 100 µM
[2]
  TGI: > 100 µM
[8]
  TGI: 70.6 µM
[3]
  TGI: > 100 µM
[4]
  TGI: > 100 µM
[5]
  TGI: 73.2 µM
[6]
  TGI: > 100 µM

## CCC(C)C1NC(=O)C2CCCN2C(=O)C(CC(C)C)OC(=O)CCNC(=O)C(C)N(C)C(=O)C(C(C)C)N(C)C1=O (stereo unspecified) (cyclo([ξLac(3-iPr)]PI[NMeV][NMeA][βAla]); configuration not given here)
[1]
  TGI: 81.8 µM
[2]
  TGI: > 83.4 µM
[8]
  TGI: > 100 µM
[3]
  TGI: > 89.2 µM
[4]
  TGI: > 100 µM
[5]
  TGI: 8.05 µM
[6]
  TGI: > 86.8 µM
[7]
  TGI: 5.06 µM

## COc1cc(C(=O)CC2OC(=O)C(Cl)=C2Cl)ccc1Cl (stereo unspecified)
[1]
  TGI: > 100 µM
[2]
  TGI: > 100 µM
[9]
  TGI: > 100 µM
[10]
  TGI: > 100 µM
[11]
  TGI: > 100 µM
[4]
  TGI: > 100 µM
[12]
  TGI: > 100 µM
[13]
  TGI: > 100 µM
[14]
  TGI: > 100 µM
[5]
  TGI: > 100 µM
[6]
  TGI: > 100 µM
[7]
  TGI: > 100 µM
[15]
  TGI: > 100 µM

## CO/N=C\c1cc(O)c(O)c(/C=N/OC)c1
[1]
  TGI: > 100 µM
[2]
  TGI: > 100 µM
[8]
  TGI: > 100 µM
[3]
  TGI: > 100 µM
[4]
  TGI: > 100 µM
[5]
  TGI: > 100 µM
[6]
  TGI: > 100 µM
[7]
  TGI: > 100 µM

## O=C(c1ccccc1)c1nc2ccc(Cl)cc2c2c1CCCO2
[2]
  TGI: > 100 µM
[10]
  TGI: > 100 µM
[11]
  TGI: > 100 µM
[4]
  TGI: > 100 µM
[12]
  TGI: > 100 µM
[13]
  TGI: > 100 µM
[14]
  TGI: > 100 µM
[5]
  TGI: > 100 µM
[7]
  TGI: > 100 µM
[15]
  TGI: > 100 µM

## N#C/C(=C\c1ccc(Br)cc1)n1nnc2cc(Cl)c(Cl)cc21
[1]
  GI50: 1.78 µM
  TGI: 4.51 µM
[2]
  GI50: 1.73 µM
  TGI: 3.24 µM
[4]
  GI50: 2.83 µM
  TGI: > 100 µM
[6]
  GI50: 1.73 µM
  TGI: 8.26 µM
[7]
  GI50: 1.68 µM
  TGI: 3.63 µM

## O=C(N/N=C/c1ccc([N+](=O)[O-])cc1)Nc1ccc(Br)cc1
[2]
  TGI: > 100 µM
[8]
  TGI: > 100 µM
[3]
  TGI: > 100 µM
[4]
  TGI: > 100 µM
[5]
  TGI: > 100 µM
[6]
  TGI: > 100 µM
[7]
  TGI: > 100 µM

## Clc1ccc(C[P+]2(c3ccccc3)CCCCC2)cc1
[1]
  TGI: > 100 µM
[2]
  TGI: > 100 µM
[9]
  TGI: > 100 µM
[10]
  TGI: > 100 µM
[11]
  TGI: > 100 µM
[4]
  TGI: > 100 µM
[12]
  TGI: > 100 µM
[13]
  TGI: > 100 µM
[14]
  TGI: > 100 µM
[5]
  TGI: > 100 µM
[6]
  TGI: > 100 µM
[7]
  TGI: > 100 µM
[15]
  TGI: 86.7 µM

## CC(NC(=O)c1ccc(NP(=O)(OCc2ccc([N+](=O)[O-])o2)N(C)CCCCCl)cc1)c1ccc(OCC2CCCCC2)c(C(N)=O)c1 (stereo unspecified)
[1]
  TGI: 49.2 µM
[2]
  TGI: > 100 µM
[3]
  TGI: > 100 µM
[5]
  TGI: 36.4 µM
[6]
  TGI: 31.7 µM
[7]
  TGI: 26.4 µM

## O=C1c2ccccc2C(=O)c2c(Nc3cc4c5c(ccc6c7ccc8c9c(cc(Nc%10cccc%11c%10C(=O)c%10ccccc%10C%11=O)c(c3c56)c97)-c3ccccc3C8=O)C(=O)c3ccccc3-4)cccc21
[1]
  TGI: 65.1 µM
[2]
  TGI: > 100 µM
[8]
  TGI: > 100 µM
[3]
  TGI: > 100 µM
[4]
  TGI: > 100 µM
[5]
  TGI: > 100 µM
[6]
  TGI: 41.5 µM
[7]
  TGI: > 100 µM

## O=C(c1ccccc1)C1C(c2ccccc2)N1S(=O)(=O)c1ccccc1 (stereo unspecified)
[8]
  TGI: > 100 µM
[3]
  TGI: > 100 µM
[4]
  TGI: > 100 µM
[5]
  TGI: > 100 µM
[6]
  TGI: > 100 µM
[7]
  TGI: > 100 µM

## OCc1cc2ccncc2c2c1[nH]c1ccccc12
[1]
  TGI: 19.6 µM
[2]
  TGI: 15.9 µM
[9]
  TGI: > 100 µM
[10]
  TGI: 23.1 µM
[11]
  TGI: 16.5 µM
[4]
  TGI: > 100 µM
[12]
  TGI: 27.4 µM
[14]
  TGI: 22 µM
[5]
  TGI: 25.1 µM
[6]
  TGI: 19.5 µM
[15]
  TGI: 19.7 µM

## Cc1nc2[nH]ncn2c(=O)c1CCCl
[1]
  TGI: > 10 µM
[2]
  TGI: > 10 µM
[3]
  TGI: > 10 µM
[4]
  TGI: > 10 µM
[6]
  TGI: > 10 µM
[7]
  TGI: > 10 µM

## CC(=O)n1cc(OP(=O)(Oc2ccccc2)Oc2ccccc2)c2ccccc21
[1]
  TGI: > 100 µM
[8]
  TGI: > 100 µM
[3]
  TGI: > 100 µM
[5]
  TGI: 57.3 µM
[7]
  TGI: 42.6 µM

## Clc1ccc(OCc2nnc3sc(-c4ccc(-c5ccc(Cl)cc5Cl)o4)nn23)cc1
[1]
  TGI: > 100 µM
[2]
  TGI: > 100 µM
[8]
  TGI: > 100 µM
[3]
  TGI: > 100 µM
[4]
  TGI: > 100 µM
[5]
  TGI: > 100 µM
[6]
  TGI: 31.3 µM

## CN=C(N)c1ccc(N=C(N)c2ccc(C(N)=Nc3ccc(C(N)=NC)cc3)cc2)cc1
[2]
  TGI: > 100 µM
[10]
  TGI: > 100 µM
[11]
  TGI: > 100 µM
[14]
  TGI: > 100 µM
[5]
  TGI: > 100 µM
[6]
  TGI: > 100 µM
[7]
  TGI: > 100 µM

## Cc1ccc2c(ccc(/C=C\c3cc(C)c4cccnc4c3O)[n+]2C)c1
[1]
  TGI: 33.9 µM
[2]
  TGI: 20.4 µM
[9]
  TGI: 4.36 µM
[10]
  TGI: 7.54 µM
[11]
  TGI: 21.4 µM
[4]
  TGI: 75 µM
[12]
  TGI: 9.28 µM
[13]
  TGI: 33.3 µM
[14]
  TGI: 18.9 µM
[5]
  TGI: 26.9 µM
[7]
  TGI: 15 µM

## CC1(C)N=C(N)N=C(N)N1c1cccc(C(=O)Nc2ccc(S(=O)(=O)F)cc2)c1
[1]
  TGI: > 100 µM
[2]
  TGI: > 100 µM
[8]
  TGI: > 100 µM
[3]
  TGI: > 100 µM
[4]
  TGI: > 100 µM
[5]
  TGI: > 100 µM
[6]
  TGI: > 100 µM
[7]
  TGI: > 100 µM

## Oc1c(Br)cc(/C=C/c2cccc(/C=C/c3cc(Br)c(O)c(Br)c3)n2)cc1Br
[1]
  TGI: 25 µM
[2]
  TGI: 52.3 µM
[8]
  TGI: > 100 µM
[3]
  TGI: 14.1 µM
[4]
  TGI: 34 µM
[5]
  TGI: 47.4 µM
[6]
  TGI: 31.6 µM
[7]
  TGI: 41.8 µM
